Article PMC9614474 (Plant Physiology, 2022)

Molecular target: T1, ChElp2 (Colletotrichum higginsianum, UniProt H1UVH3)
T1 construct: gene ELP2
Details: 25 °C

T1 sequence (H1UVH3 19-176): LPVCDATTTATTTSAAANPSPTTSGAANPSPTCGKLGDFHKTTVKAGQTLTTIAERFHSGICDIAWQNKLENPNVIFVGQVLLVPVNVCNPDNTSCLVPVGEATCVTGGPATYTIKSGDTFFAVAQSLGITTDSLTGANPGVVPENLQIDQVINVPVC

CC(=O)N[C@H]1[C@H](O[C@H]2[C@H](O)[C@@H](NC(C)=O)[C@H](O[C@H]3[C@H](O)[C@@H](NC(C)=O)C(O)O[C@@H]3CO)O[C@@H]2CO)O[C@H](CO)[C@@H](O[C@@H]2O[C@H](CO)[C@@H](O[C@@H]3O[C@H](CO)[C@@H](O[C@@H]4O[C@H](CO)[C@@H](O)[C@H](O)[C@H]4NC(C)=O)[C@H](O)[C@H]3NC(C)=O)[C@H](O)[C@H]2NC(C)=O)[C@@H]1O (stereo partly shown) [Chi6, hexaacetylchitohexaose]
Kd: 5.03 ± 0.241 µM
